From PubChem BioAssay (NCI)
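Following 48 hours of exposure in 96-well plates, responses at five concentrations were used to interpolate endpoints linearly. TGI: total growth inhibition.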

Legend:
Test in all cases: NCI-60 cell line screen, 48 h
HCT-116 colon = test system: HCT-116 colon
SNB-19 CNS = test system: SNB-19 CNS
HCT-15 colon = test system: HCT-15 colon
SK-MEL-2 melanoma = test system: SK-MEL-2 melanoma
MCF7 breast = test system: MCF7 breast
SK-MEL-28 melanoma = test system: SK-MEL-28 melanoma
DU-145 prostate = test system: DU-145 prostate
OVCAR-4 ovarian = test system: OVCAR-4 ovarian
HOP-92 NSCLC = test system: HOP-92 NSCLC
A549 NSCLC = test system: A549 NSCLC
OVCAR-3 ovarian = test system: OVCAR-3 ovarian
RXF 393 renal = test system: RXF 393 renal
NCI-H226 lung = test system: NCI-H226 lung
U251 CNS = test system: U251 CNS
OVCAR-5 ovarian = test system: OVCAR-5 ovarian
HOP-62 NSCLC = test system: HOP-62 NSCLC
CAKI-1 renal = test system: CAKI-1 renal
SK-OV-3 ovarian = test system: SK-OV-3 ovarian
OVCAR-8 ovarian = test system: OVCAR-8 ovarian
SK-MEL-5 melanoma = test system: SK-MEL-5 melanoma
COLO 205 colon = test system: COLO 205 colon
SF-268 CNS = test system: SF-268 CNS
HT29 colon = test system: HT29 colon
PC-3 prostate = test system: PC-3 prostate
SR leukemia = test system: SR leukemia
ACHN renal = test system: ACHN renal
KM12 colon = test system: KM12 colon
RPMI-8226 leukemia = test system: RPMI-8226 leukemia
UACC-62 melanoma = test system: UACC-62 melanoma
SNB-75 CNS = test system: SNB-75 CNS
MDA-N = test system: MDA-N
NCI-H522 lung = test system: NCI-H522 lung
786-0 renal = test system: 786-0 renal
BT-549 breast = test system: BT-549 breast
MDA-MB-435 = test system: MDA-MB-435
NCI/ADR-RES ovarian = test system: NCI/ADR-RES ovarian
CCRF-CEM leukemia = test system: CCRF-CEM leukemia
IGROV1 ovarian = test system: IGROV1 ovarian
MDA-MB-231 breast = test system: MDA-MB-231 breast
HS 578T breast = test system: HS 578T breast
HL-60(TB) leukemia = test system: HL-60(TB) leukemia
SN12C renal = test system: SN12C renal
EKVX NSCLC = test system: EKVX NSCLC
SW-620 colon = test system: SW-620 colon
SF-295 CNS = test system: SF-295 CNS
UO-31 renal = test system: UO-31 renal
MOLT-4 leukemia = test system: MOLT-4 leukemia
LOX IMVI melanoma = test system: LOX IMVI melanoma
M14 melanoma = test system: M14 melanoma
MALME-3M melanoma = test system: MALME-3M melanoma
NCI-H460 lung = test system: NCI-H460 lung
T-47D breast = test system: T-47D breast
NCI-H23 lung = test system: NCI-H23 lung
TK-10 renal = test system: TK-10 renal
K-562 leukemia = test system: K-562 leukemia
SF-539 CNS = test system: SF-539 CNS
HCC-2998 colon = test system: HCC-2998 colon
UACC-257 melanoma = test system: UACC-257 melanoma
A498 renal = test system: A498 renal

## COc1ccc([C@H]2CC(=O)C[C@H](c3ccc(OC)cc3OC)C23C(=O)c2ccccc2C3=O)c(OC)c1
HCT-116 colon
  TGI: > 100 µM
SNB-19 CNS
  TGI: > 100 µM
HCT-15 colon
  TGI: > 100 µM
SK-MEL-2 melanoma
  TGI: > 100 µM
MCF7 breast
  TGI: > 100 µM
SK-MEL-28 melanoma
  TGI: > 100 µM
DU-145 prostate
  TGI: > 100 µM
OVCAR-4 ovarian
  TGI: > 100 µM
HOP-92 NSCLC
  TGI: > 100 µM
A549 NSCLC
  TGI: > 100 µM
OVCAR-3 ovarian
  TGI: > 100 µM
RXF 393 renal
  TGI: > 100 µM
NCI-H226 lung
  TGI: > 100 µM
U251 CNS
  TGI: > 100 µM
OVCAR-5 ovarian
  TGI: > 100 µM
HOP-62 NSCLC
  TGI: > 100 µM
CAKI-1 renal
  TGI: > 100 µM
SK-OV-3 ovarian
  TGI: > 100 µM
OVCAR-8 ovarian
  TGI: > 100 µM
SK-MEL-5 melanoma
  TGI: > 100 µM
COLO 205 colon
  TGI: > 100 µM
SF-268 CNS
  TGI: > 100 µM
HT29 colon
  TGI: > 100 µM
PC-3 prostate
  TGI: > 100 µM
SR leukemia
  TGI: > 100 µM
ACHN renal
  TGI: > 100 µM
KM12 colon
  TGI: > 100 µM
RPMI-8226 leukemia
  TGI: > 100 µM
UACC-62 melanoma
  TGI: > 100 µM
SNB-75 CNS
  TGI: > 100 µM
MDA-N
  TGI: > 100 µM
NCI-H522 lung
  TGI: > 100 µM
786-0 renal
  TGI: > 100 µM
BT-549 breast
  TGI: > 100 µM
MDA-MB-435
  TGI: > 100 µM
NCI/ADR-RES ovarian
  TGI: > 100 µM
CCRF-CEM leukemia
  TGI: > 100 µM
IGROV1 ovarian
  TGI: > 100 µM
MDA-MB-231 breast
  TGI: > 100 µM
HS 578T breast
  TGI: > 100 µM
HL-60(TB) leukemia
  TGI: > 100 µM
SN12C renal
  TGI: > 100 µM
EKVX NSCLC
  TGI: > 100 µM
SW-620 colon
  TGI: > 100 µM
SF-295 CNS
  TGI: > 100 µM
UO-31 renal
  TGI: > 100 µM
MOLT-4 leukemia
  TGI: > 100 µM
LOX IMVI melanoma
  TGI: > 100 µM
M14 melanoma
  TGI: > 100 µM
MALME-3M melanoma
  TGI: > 100 µM
NCI-H460 lung
  TGI: > 100 µM
T-47D breast
  TGI: > 100 µM
NCI-H23 lung
  TGI: > 100 µM
TK-10 renal
  TGI: > 100 µM
K-562 leukemia
  TGI: > 100 µM
SF-539 CNS
  TGI: > 100 µM
HCC-2998 colon
  TGI: > 100 µM
UACC-257 melanoma
  TGI: > 100 µM

## CC1(c2ccccc2)CCN(C2CC2)CO1 (stereo unspecified)
HCT-116 colon
  TGI: 40.9 µM
SNB-19 CNS
  TGI: > 100 µM
HCT-15 colon
  TGI: 30.1 µM
SK-MEL-2 melanoma
  TGI: > 100 µM
MCF7 breast
  TGI: 32 µM
SK-MEL-28 melanoma
  TGI: 37.5 µM
DU-145 prostate
  TGI: > 100 µM
OVCAR-4 ovarian
  TGI: 33.9 µM
A549 NSCLC
  TGI: > 100 µM
OVCAR-3 ovarian
  TGI: 31.7 µM
RXF 393 renal
  TGI: 69.3 µM
NCI-H226 lung
  TGI: > 100 µM
U251 CNS
  TGI: > 100 µM
OVCAR-5 ovarian
  TGI: 33.3 µM
HOP-62 NSCLC
  TGI: > 100 µM
CAKI-1 renal
  TGI: 36.5 µM
SK-OV-3 ovarian
  TGI: > 100 µM
OVCAR-8 ovarian
  TGI: > 100 µM
SK-MEL-5 melanoma
  TGI: > 100 µM
COLO 205 colon
  TGI: 39.8 µM
SF-268 CNS
  TGI: 35.4 µM
HT29 colon
  TGI: 35.7 µM
PC-3 prostate
  TGI: > 100 µM
SR leukemia
  TGI: 65.5 µM
ACHN renal
  TGI: 31.7 µM
KM12 colon
  TGI: 30.4 µM
RPMI-8226 leukemia
  TGI: > 100 µM
UACC-62 melanoma
  TGI: 32 µM
SNB-75 CNS
  TGI: > 100 µM
MDA-N
  TGI: 31 µM
786-0 renal
  TGI: 29.9 µM
BT-549 breast
  TGI: 32.3 µM
MDA-MB-435
  TGI: > 100 µM
NCI/ADR-RES ovarian
  TGI: 46.6 µM
CCRF-CEM leukemia
  TGI: > 100 µM
IGROV1 ovarian
  TGI: 40.2 µM
MDA-MB-231 breast
  TGI: 38.4 µM
HS 578T breast
  TGI: 44 µM
HL-60(TB) leukemia
  TGI: > 100 µM
SN12C renal
  TGI: 36.6 µM
EKVX NSCLC
  TGI: 41.4 µM
SW-620 colon
  TGI: 36.2 µM
SF-295 CNS
  TGI: > 100 µM
UO-31 renal
  TGI: 35.8 µM
MOLT-4 leukemia
  TGI: 43.5 µM
LOX IMVI melanoma
  TGI: 39.9 µM
M14 melanoma
  TGI: 31 µM
MALME-3M melanoma
  TGI: 34.4 µM
NCI-H460 lung
  TGI: 28.1 µM
T-47D breast
  TGI: 45.1 µM
NCI-H23 lung
  TGI: 85.2 µM
TK-10 renal
  TGI: 26.7 µM
K-562 leukemia
  TGI: > 100 µM
HCC-2998 colon
  TGI: 30.8 µM
UACC-257 melanoma
  TGI: 47.8 µM

## Nc1nc(N)c2ncn(-c3ccc(Br)cc3)c2n1
HCT-116 colon
  TGI: > 100 µM
SNB-19 CNS
  TGI: > 100 µM
HCT-15 colon
  TGI: > 100 µM
SK-MEL-2 melanoma
  TGI: 41.5 µM
MCF7 breast
  TGI: > 57.1 µM
SK-MEL-28 melanoma
  TGI: > 100 µM
DU-145 prostate
  TGI: > 100 µM
OVCAR-4 ovarian
  TGI: > 100 µM
HOP-92 NSCLC
  TGI: > 38.1 µM
A549 NSCLC
  TGI: > 100 µM
A498 renal
  TGI: > 61.9 µM
OVCAR-3 ovarian
  TGI: > 64 µM
RXF 393 renal
  TGI: > 78.6 µM
NCI-H226 lung
  TGI: > 100 µM
U251 CNS
  TGI: > 100 µM
OVCAR-5 ovarian
  TGI: > 73.1 µM
HOP-62 NSCLC
  TGI: > 59.8 µM
CAKI-1 renal
  TGI: > 45.3 µM
SK-OV-3 ovarian
  TGI: 73.9 µM
OVCAR-8 ovarian
  TGI: > 55.7 µM
SK-MEL-5 melanoma
  TGI: > 100 µM
COLO 205 colon
  TGI: > 100 µM
SF-268 CNS
  TGI: > 63.8 µM
HT29 colon
  TGI: > 45.6 µM
PC-3 prostate
  TGI: > 65 µM
SR leukemia
  TGI: 3.2 µM
ACHN renal
  TGI: > 52.8 µM
KM12 colon
  TGI: > 45.7 µM
RPMI-8226 leukemia
  TGI: > 56.1 µM
UACC-62 melanoma
  TGI: > 66.8 µM
SNB-75 CNS
  TGI: 31.2 µM
MDA-N
  TGI: > 100 µM
NCI-H522 lung
  TGI: > 42.5 µM
786-0 renal
  TGI: > 100 µM
BT-549 breast
  TGI: > 100 µM
MDA-MB-435
  TGI: > 100 µM
NCI/ADR-RES ovarian
  TGI: 50.8 µM
CCRF-CEM leukemia
  TGI: 34.7 µM
IGROV1 ovarian
  TGI: 41.5 µM
MDA-MB-231 breast
  TGI: > 86.1 µM
HS 578T breast
  TGI: 25.3 µM
SN12C renal
  TGI: 75.6 µM
EKVX NSCLC
  TGI: 88.4 µM
SW-620 colon
  TGI: > 100 µM
SF-295 CNS
  TGI: > 100 µM
UO-31 renal
  TGI: > 50.6 µM
MOLT-4 leukemia
  TGI: 37.3 µM
LOX IMVI melanoma
  TGI: > 100 µM
M14 melanoma
  TGI: > 69.2 µM
MALME-3M melanoma
  TGI: > 44.9 µM
NCI-H460 lung
  TGI: > 100 µM
T-47D breast
  TGI: > 100 µM
NCI-H23 lung
  TGI: > 93.2 µM
TK-10 renal
  TGI: > 100 µM
K-562 leukemia
  TGI: 38.3 µM
SF-539 CNS
  TGI: 46.5 µM
HCC-2998 colon
  TGI: > 100 µM
UACC-257 melanoma
  TGI: > 100 µM
